US20070031815A1, “Screening method for identifying hsp90 modulators” (University of Liverpool, priority 2003, published 2007)

What follows are compounds tested on yeast cells (assay: Entry of known Hsp90 inhibitors into yeast cells). Details: not given.
Type: cell-based
Description: Yeast have many advantages in development of screening systems or biosensors-compared to mammalian cells they are robust; easy and cheap to grow; genetically stable; and represent a reduced health risk to workers (viral contamination of cell lines becomes an issue in low cost high throughput screening). […] However, yeast are not always permeable to compounds that would be able to enter mammalian cells. […] This problem has been overcome in the past by using yeast mutants that have enhanced sensitivity to toxic chemicals. These mutations are in genes described as Pleiotrophic Drug Resistance (PDR) or Multiple Drug Resistance (MDR) gene. One class of PDR genes are those affecting the ergosterol balance in the yeast membrane. Mammalian cells have cholesterol in the plasma membrane while yeast have ergosterol. Mutations in the gene ERG6 (ISE1) cause cells to become sensitive to a range of lipophilic drugs. Another class of mutations affect active drug uptake or efflux, for example mutations to the ATP dependent efflux pump PDR5 increase drug sensitivity. A combination of mutations from these different pathways further increases sensitivity. In addition to increasing permeability of the plasma membrane and reducing efflux better drug entry can also be brought about by changing the cell wall structure, this can also increase osmotic sensitivity, which facilitates release of proteins. Mutation of the GDP-mannose phosphorylase (SRB1) interferes with the glycosylation of cell wall proteins, this increases drug and osmotic sensitivity. Hsp90 itself is also involved in the maintenance of cell wall integrity via its functional interaction with Ste11. Ste11 is a MAPKKK that normally activates the MAPKK Pbs2 which in turn activates the Hog-1 transcriptional activator. Hog-1 activation modifies the cell wall in response to osmotic shock, disruption of Hog-1 causes drug and osmotic sensitivity. There are also dominant mutations which increase sensitivity to cytotoxic agents, such as ISE2 which increases sensitivity to a range of topoisomerase II inhibitors.

Q: Which “entry into yeast cells” value does the source give for CO[C@H]1[C@@H](OC)C[C@H](C)[C@@H](OC)C2=CC(=O)C=C(NC(=O)/C(C)=C/C=C\[C@H](C)[C@@H](OC(N)=O)/C(C)=C/[C@@H]1C)C2=O [Macbecin, Macbecin I] here?
A: Its value is “enter yeast cells easily”.

Same assay, conditions: yeast permeability

Q: Which “entry into yeast cells” value does the source give for C=CCNC1=C2C[C@@H](C)C[C@H](OC)[C@H](O)[C@@H](C)/C=C(\C)[C@H](OC(N)=O)[C@@H](OC)/C=C\C=C(/C)C(=O)NC(=CC1=O)C2=O [Compound 17-AAG, 17-allylamino demethoxy geldanamycin] here?
A: Its value is “enter yeast cells easily”.

Q: How did the “entry into yeast cells” value turn out when COC1=C2C[C@@H](C)C[C@H](OC)[C@H](O)[C@@H](C)/C=C(\C)[C@H](OC(N)=O)[C@@H](OC)/C=C\C=C(/C)C(=O)NC(=CC1=O)C2=O [GA, Geldanamycin] was run?
A: The value was “enter yeast cells easily”.

Q: CO[C@H]1[C@@H](OC)C[C@H](C)[C@@H](OC)C2=CC(=O)C=C(NC(=O)/C(C)=C/C=C\[C@H](OC)[C@@H](OC(N)=O)/C(C)=C/[C@@H]1C)C2=O [Herbimycin] was tested. Which “entry into yeast cells” value did it give?
A: Its value is “enter yeast cells easily”.

Q: CO[C@@H]1[C@@H](OC(N)=O)[C@@H](O)[C@H](Oc2ccc3c(O)c(NC(=O)c4ccc(O)c(CC=C(C)C)c4)c(=O)oc3c2C)OC1(C)C [Novobiocin] was tested. Which “entry into yeast cells” value did it give?
A: Its value is “enter yeast cells easily”.

Q: C[C@@H]1C[C@H]2O[C@@H]2/C=C\C=C\C(=O)Cc2c(Cl)c(O)cc(O)c2C(=O)O1 [Radicicol] was tested. Which “entry into yeast cells” value did it give?
A: The value was “enter yeast cells easily”.
